Reference: patent US8460858B2, “Near-infrared-ray absorbing material containing cyanine compound, and cyanine compound” (Adeka Corporation, priority 2008, dated 2013)
Where a name gives a salt, the structure may show the parent alone.

Assays:
[1] = Decomposition point measurement (TG/DTA); type: physicochemical; conditions: temperature at which the mass started to decrease, differential thermal analysis, temperature-rise rate 10° C./minute
Protocol: The UV-Visible absorption spectra measurement was conducted by preparing a chloroform solution of each compound to be tested, and employing a UV-Vis-NIR spectrophotometer (“V-570”; product from JASCO Corporation). The decomposition point measurement was conducted using a thermogravimetry differential thermal analyzer (“TG/DTA 6200”; product from Seiko Instruments Inc.), to find the temperature at which the mass started to decrease in differential thermal analysis at a temperature-rise rate of 10° C./minute.

[2] = Solubility measurement in methyl ethyl ketone (MEK); type: physicochemical; conditions: concentration when the solute completely dissolved
Protocol: The solubility measurement was conducted as follows: the compound to be tested was weighed; methyl ethyl ketone (MEK) was slowly added thereto; when the solute completely dissolved, the solution was weighed; and the concentration of the test compound in the solution was determined by calculation.

Row | Decomposition Point [1] [°C] | Solubility (MEK) [2] [wt %] | Compound
1 | 238.3 | 0.16 | CN1/C(=C/C=C/C=C/C=C/C=C/C2=[N+](C)c3ccccc3C2(Cc2ccccc2)Cc2ccccc2)C(Cc2ccccc2)(Cc2ccccc2)c2ccccc21 [Example 1-1, Tetrafluoroborate Salt of Compound No. 2]
2 | 280.7 | 1.46 | CN1/C(=C/C=C/C=C/C=C/C=C/C2=[N+](C)c3ccc4ccccc4c3C23CCCCC3)C2(CCCCC2)c2c1ccc1ccccc21 [Example 1-11, bis(trifluoromethane sulfone)imide salt of Compound No. 64]
3 | 238.4 | 0.73 | CN1/C(=C/C=C/C=C/C=C/C=C/C2=[N+](C)c3ccccc3C2(C)C)C(C)(C)c2ccccc21 [Example 1-10, bis(trifluoromethane sulfone)imide salt of Compound No. 61]
4 | 255.8 | 0.98 | CN1/C(=C/C=C/C=C/C=C/C=C/C2=[N+](C)c3ccc4ccccc4c3C2(C)Cc2ccccc2)C(C)(Cc2ccccc2)c2c1ccc1ccccc21 (stereo not shown) [Example 1-4, Bis(Trifluoromethane Sulfone)Imide Salt of Compound No. 3]
5 | 192.6 | 1.62 | CN1/C(=C/C=C/C=C/C=C/C=C/C2=[N+](C)c3ccc4ccccc4c3C2(Cc2ccccc2)Cc2ccccc2)C(Cc2ccccc2)(Cc2ccccc2)c2c1ccc1ccccc21 [Example 1-6, Tetrafluoroborate Salt of Compound No. 4]
6 | 266.5 | 3.71 | CN1/C(=C/C=C/C=C/C=C/C=C/C2=[N+](C)c3ccc4ccccc4c3C2(Cc2ccccc2)Cc2ccccc2)C(Cc2ccccc2)(Cc2ccccc2)c2c1ccc1ccccc21 [Example 1-7, Bis(Trifluoromethane Sulfone)Imide Salt of Compound No. 4]
7 | 180.5 | 0.97 | CN1/C(=C/C=C/C=C/C=C/C=C/C2=[N+](C)c3ccc4ccccc4c3C2(C)Cc2ccccc2)C(C)(Cc2ccccc2)c2c1ccc1ccccc21 (stereo not shown) [Example 1-3, Tetrafluoroborate Salt of Compound No. 3]
8 | 248.6 | 2.34 | CN1/C(=C/C=C/C=C/C=C/C=C/C2=[N+](C)c3ccccc3C2(Cc2ccccc2)Cc2ccccc2)C(Cc2ccccc2)(Cc2ccccc2)c2ccccc21 [Example 1-2, Bis(Trifluoromethane Sulfone)Imide Salt of Compound No. 2]
9 | 193.8 | 1.36 | CCCN1/C(=C/C=C/C=C/C=C/C=C/C2=[N+](CCC)c3ccc4ccccc4c3C2(Cc2ccccc2)Cc2ccccc2)C(Cc2ccccc2)(Cc2ccccc2)c2c1ccc1ccccc21 [Example 1-9, Tetrafluoroborate Salt of Compound No. 6]

Row | Compound | Decomposition Point [1] [°C] | Solubility (MEK) [2] [wt %]
10 | O=S(=O)(c1ccc2c(c1)[S][Cu-]1([S]2)[S]c2ccc(S(=O)(=O)N3CCOCC3)cc2[S]1)N1CCOCC1 [1-3, reference compound] | 198.7 | 0.20
11 | O=S(=O)(c1ccc2c(c1)[S][Cu-]1([S]2)[S]c2ccc(S(=O)(=O)N3CCOCC3)cc2[S]1)N1CCOCC1 [Example 1-8, Quencher (1-1) Salt of Compound No. 4] | 258.8 | 3.69
12 | CN1/C(=C/C=C/C=C/C=C/C=C/C2=[N+](C)c3c(c4ccccc4c4ccccc34)C2(C)C)C(C)(C)c2c1c1ccccc1c1ccccc21 [Example 1-12, bis(trifluoromethane sulfone)imide salt of Compound No. 105] | 291.5 | 1.13
13 | CN1/C(=C/C=C/C=C/C=C/C=C/C2=[N+](C)c3c(c4ccccc4c4ccccc34)C2(C)C)C(C)(C)c2c1c1ccccc1c1ccccc21 [1-4, reference compound] | 261.3 | 0.28
14 | O=S(=O)(c1ccc2c(c1)[S][Cu-]1([S]2)[S]c2ccc(S(=O)(=O)N3CCOCC3)cc2[S]1)N1CCOCC1 [Example 1-5, Quencher (1-1) Salt of Compound No. 3] | 249.1 | 0.39
